Counter-ions that a name gives are not always drawn. Like-named read-outs stand apart in the source and are kept apart here.

The test system of this assay is phospho-akt (Thr308) in PC-3 cells. Kind of assay: Inhibition of phospho-akt (Thr308) in PC-3 cells, MSD phospho-akt 308 ELISA kit. Format: cell-based. To be noted: Homo sapiens, 2 hours, no serum, read-out: EC50. How it is done: PC-3 cells were harvested by trypsin and counted. Cells were plated in coated 96-well flat bottom plates (plate 15,000 cells/well in 100 ul growth media (10% FBS, 1× pen-strep) an place in an incubator overnight.
Subject inhibitors were stocked at 50 mM, then diluted to 30 mM (4.8 μl cpd plus […] DMSO) in 100% DMSO. Three-fold dilutions were performed from 30 mM stock. (4 μl into 8 ul 100% DMSO). Aliquots of 1.0 μl of inhibitor solution were transferred into SF Medium (using deep well block).
Control wells were prepared as follows. For DMSO high controls, 1.0 μl of 100% DMSO was added into 1.0 ml SF. For low controls for PC-3 cells, 5 μM of Wortmannin (10 μl of 1 mM Wortmannin stock was added into 2 ml SF Medium. The supernatant media was removed and the plate was blotted. 100 μl of controls/media or compound/media were added to cells and placed in incubator for 2 hours. The supernatant media was removed and the plate was blotted. 55 μl of the MSD complete lysis buffer was added (10 mls Tris Lysis buffer, 200 ul protease inhibitor, 100 ul phosphatase inhibitor 1, and 100 ul phosphatase inhibitor II). The plate was placed on a plate shaker for 60 mins at 4 deg.
MSD plates were blocked for 1 hour by adding 150 μl of Blocking Solution (3% BSA) to each well. The MSD plates were washed 4× with TBST, and 50 μl lysates were transferred to MSD plate and place on plate shaker shake at 4 degrees O/N, light shaking (speed 3.5). The plate was washed 4× with TBST.
25 μl of Ab detection solution was added to each well. The plate was sealed and incubated 1 hr RT, light shaking (speed 3.5). The plate was washed 4 times with TBST. 150 μl of Read Buffer was added (5 mls 4×MSD Read Buffer+15 mls water). Finally the plate was read immediately on the MSD plate reader.

Setting [1] is: inhibition of P308 Akt in PC-3 cells using MSD.
Where [2] appears, read: inhibition of P308 Akt in PC-3 cells, MSD.

With `N#Cc1cnc(NCc2ccc(-c3cnc4[nH]ncc4c3)cc2)c(C(=O)NCc2ccc(F)c(F)c2)c1` [Example 396, 5-Cyano-N-(3,4-difluoro-benzyl)-2-[4-(1H-pyrazolo[3,4-b]pyridin-5-yl)-benzylamino]-nicotinamide], the EC50 under setting [1] was below 1000 nM.
On to `Nc1ncnc2ccc(-c3ccc(CNc4ncccc4C(=O)NCc4cncc(F)c4)s3)cc12` [Example 3.65, 2-({[5-(4-aminoquinazolin-6-yl)thiophen-2-yl]methyl}amino)-N-[(5-fluoropyridin-3-yl)methyl] pyridine-3-carboxamide (TFA salt)], for which the EC50 under setting [2] was 1000 to 10000 nM.
Still for that read-out and setting: the value for `C[C@H](NC(=O)c1cccnc1NCc1ccc(-c2ccc3ncnc(NCCO)c3c2)s1)c1ccc(F)cc1` [Example 2.14, (S)-N-(1-(4-fluorophenyl)ethyl)-2-(((5-(4-(2-hydroxyethylamino)quinazolin-6-yl)thiophen-2-yl)methyl)amino)nicotinamide] was 1000 to 10000 nM.
Same read-out and setting: the figure for `C[C@H](NC(=O)c1cccnc1NCc1ccc(-c2cc3c(cn2)ncn3C)s1)c1ccc(F)cc1` [Example 2.6, (S)-N-(1-(4-fluorophenyl)ethyl)-2-(((5-(1-methyl-1H-imidazo [4,5-c]pyridin-6-yl)thiophen-2-yl)methyl)amino)nicotinamide] is above 10000 nM.
For `C[C@H](NC(=O)c1nc(C#N)cnc1NCc1ccc(-c2cnc(N)c(CO)n2)cc1)c1ccc(F)c(F)c1` [Example 241, 3-[4-(5-Amino-6-hydroxy-methyl-pyrazin-2-yl)-benzylamino]-6-cyano-pyrazine-2-carboxylic acid [(S)-1-(3,4-difluoro-phenyl)-ethyl]-amide], under setting [1], the EC50 is below 1000 nM.
Still for that read-out and setting: the figure for `C[C@H](NC(=O)c1nc(C(F)(F)F)cnc1NCc1ccc(-c2cnc3[nH]nc(N)c3c2)cc1)c1ccc(F)c(F)c1` [Example 428, (S)-3-(4-(3-amino-1H-pyrazolo[3,4-b]pyridin-5-yl)benzylamino)-N-(1-(3,4-difluorophenyl)ethyl)-6-(trifluoromethyl) pyrazine-2-carboxamide] is below 1000 nM; for `Nc1ncc(-c2ccc(CNc3ncc(C(F)(F)F)cc3C(=O)Nc3ccc(F)cc3)cc2)nc1CO` [Example 242, 2-[4-(5-Amino-6-hydroxy-methyl-pyrazin-2-yl)-benzylamino]-N-(4-fluoro-phenyl)-5-trifluoromethyl-nicotinamide] it is below 1000 nM; for `C[C@H](NC(=O)c1cc(C#N)cnc1N[C@H](C)c1ccc(-c2cnc3[nH]nc(N)c3c2)nc1)c1ccc(F)cc1` [Example 416, 2-{(R)-1-[6-(3-Amino-1H-pyrazolo[3,4-b]pyridin-5-yl)-pyridin-3-yl]-ethylamino}-5-cyano-N-[(S)-1-(4-fluoro-phenyl)-ethyl]-nicotinamide] it is below 1000 nM.
Consider `COCCNC(=O)c1cccnc1NCc1ccc(-c2ccc3ncnc(N)c3c2)s1` [Example 3.35, 2-({[5-(4-aminoquinazolin-6-yl)thiophen-2-yl]methyl}amino)-N-(2-methoxyethyl)pyridine-3-carboxamide (TFA salt)], for which the EC50 under setting [2] is 1000 to 10000 nM.
On to `C[C@H](NC(=O)c1cc(C#N)cnc1NCC#Cc1ccc2nc(N)ncc2c1)c1ccc(F)cc1` [Example 257, (S)-2-(3-(2-aminoquinazolin-6-yl)prop-2-ynylamino)-5-cyano-N-(1-(4-fluorophenyl)ethyl)nicotinamide], for which the EC50 under setting [1] is below 1000 nM.
On the same count and under the same terms, the figure for `C[C@H](NC(=O)c1nc(C#N)cnc1NCC#Cc1ccc2nc(N)ncc2c1)c1ccc(F)c(F)c1` [Example 258, (S)-3-(3-(2-aminoquinazolin-6-yl)prop-2-ynylamino)-6-cyano-N-(1-(3,4-difluorophenyl)ethyl) pyrazine-2-carboxamide] is below 1000 nM; for `C[C@H](NC(=O)c1cc(C#N)cnc1NCc1ccc(-c2cnc3[nH]c(=O)[nH]c3c2)c(F)c1)c1ccc(F)cc1` [Example 127, (S)-5-cyano-2-(3-fluoro-4-(2-oxo-2,3-dihydro-1H-imidazo[4,5-b]pyridin-6-yl)benzyl-amino)-N-(1-(4-fluorophenyl)ethyl) nicotinamide] it is below 1000 nM.
Still for that read-out and setting: the figure for `Cc1nc(N)cnc1-c1ccc(CNc2ncc(C#N)cc2C(=O)N[C@@H](C)c2ccc(F)cc2)cc1` [Example 107, (S)-2-(4-(5-amino-3-methylpyrazin-2-yl)benzylamino)-5-cyano-N-(1-(4-fluorophenyl)ethyl)nicotinamide] is above 10000 nM.
Still for that read-out and setting: the figure for `N#Cc1cc(F)ccc1NC(=O)c1cc(C(F)(F)F)cnc1NCc1ccc(-c2cnc3[nH]nc(N)c3c2)cc1` [Example 418, 2-(4-(3-amino-1H-pyrazolo [3,4-b]pyridin-5-yl)benzylamino)-N-(2-cyano-4-fluorophenyl)-5-(trifluoromethyl)nicotinamide] is 1000 to 10000 nM.
Regarding `Cc1ccc(NC(=O)c2cccnc2NCc2ccc(-c3ccc4ncnc(N)c4c3)s2)cc1F` [Example 3.50, 2-({[5-(4-aminoquinazolin-6-yl)thiophen-2-yl]methyl}amino)-N-(3-fluoro-4-methylphenyl) pyridine-3-carboxamide (TFA salt)], the EC50 under setting [2] is above 10000 nM.
As for `C[C@H](NC(=O)c1nc(C#N)cnc1N[C@H](C)c1ccc(-c2cnc3[nH]nc(N)c3c2)nc1)c1ccc(F)c(F)c1` [Example 415, 3-{(R)-1-[6-(3-Amino-1H-pyrazolo[3,4-b]pyridin-5-yl)-pyridin-3-yl]-ethylamino}-6-cyano-pyrazine-2-carboxylic acid [(S)-1-(3,4-difluoro-phenyl)-ethyl]-amide], the EC50 under setting [1] is below 1000 nM.
Turning to `Nc1ncnc2ccc(-c3ccc(CNc4ncc(Br)cc4S(=O)(=O)NCc4ccc(F)c(F)c4)s3)cc12` [Example 20.1, 2-(((5-(4-aminoquinazolin-6-yl)thiophen-2-yl)methyl)amino)-5-bromo-N-(3,4-difluorobenzyl)pyridine-3-sulfonamide], the EC50 under setting [2] is above 10000 nM.
Consider `C[C@H](NC(=O)c1nc(C(F)(F)F)cnc1N[C@H](C)c1ccc(-c2cnc3[nH]nc(N)c3c2)cc1)c1ccc(F)c(F)c1` [Example 427, 3-((R)-1-(4-(3-amino-1H-pyrazolo[3,4-b]pyridin-5-yl)phenyl)ethylamino)-N-((S)-1-(3,4-difluorophenyl)ethyl)-6-(trifluoromethyl) pyrazine-2-carboxamide], for which the EC50 under setting [1] fell in the range of 1000 to 10000 nM.
On to `CCc1cnc(NCc2ccc(-c3ccc4ncnc(N)c4c3)s2)c(C(=O)NCc2ccc(F)c(F)c2)c1` [Ex. 8.11, 2-({[5-(4-aminoquinazolin-6-yl)thiophen-2-yl]methyl}amino)-N-(3,4-difluorobenzyl)-5-ethylpyridine-3-carboxamide], for which the EC50 under setting [2] was below 1000 nM.
For the compound `C[C@H](NC(=O)c1cc(C#N)cnc1NCc1ccc(-c2cnc3[nH]nc(N)c3c2)cc1F)c1ccc(F)cc1` [Example 407, 2-[4-(3-Amino-1H-pyrazolo [3,4-b]pyridin-5-yl)-2-fluoro-benzylamino]-5-cyano-N-[(S)-1-(4-fluoro-phenyl)-ethyl]-nicotinamide], the EC50 under setting [1] is below 1000 nM.
On to `C[C@H](NC(=O)c1cc(C#N)cnc1NCc1ccc(-c2cnc3[nH]c(=O)n(C)c3c2)cc1)c1ccc(F)cc1` [Example 140, (S)-5-cyano-N-(1-(4-fluorophenyl)ethyl)-2-(4-(1-methyl-2-oxo-2,3-dihydro-1H-imidazo [4,5-b]pyridin-6-yl)benzylamino)nicotinamide], for which, under setting [1], the EC50 was below 1000 nM.
For the compound `C[C@H](NC(=O)c1cccnc1NCc1ccc(-c2ccc3nc(N)sc3c2)s1)c1ccc(F)cc1` [Example 2.22, (S)-2-(((5-(2-aminobenzo[d]thiazol-6-yl)thiophen-2-yl)methyl)amino)-N-(1-(4-fluorophenyl)ethyl) nicotinamide], under setting [2], the EC50 was above 10000 nM.
As for `C[C@H](NC(=O)c1cc(C#N)cnc1NCc1ccc(-c2cnc3[nH]nc(N)c3c2)cc1Cl)c1ccc(F)cc1` [Example 406, 2-[4-(3-Amino-1H-pyrazolo [3,4-b]pyridin-5-yl)-2-chloro-benzylamino]-5-cyano-N-[(S)-1-(4-fluoro-phenyl)-ethyl]-nicotinamide], the EC50 under setting [1] lay within 1000 to 10000 nM.

The record behind these values is patent publication US10030016B2 (Sunesis Pharmaceuticals, Inc., priority 2009, dated 2018).
